Data reported in publication PMC11719397, “Monophthalates of betulinic acid and related pentacyclic triterpenes inhibit efficiently the SOS-mediated nucleotide exchange and impact PI3K/AKT signaling in oncogenic K-RAS4B proteins” (RSC Advances, 2025).
≈ marks a conversion by molar mass, not a printed value. Where two headings read alike, the source gives them in different places.

Experiments:
[1] = target: T1, K-RAS4B^G12D (Homo sapiens, UniProt P01116, G12D); test: biochemical; conditions: for IC50: K-RAS4B GDP/GTP exchange, eight data points, at least three determinations
[2] = target: K-RAS4B G12V (Homo sapiens, UniProt P01116, G12V); test: Nucleotide exchange assay (SOS1-mediated GDP/GTP exchange, GDP-Glo), K-RAS4B G12V; assay type: biochemical; conditions: eight data points, at least three determinations, (*) single determination
[3] = Solubility
[4] = target: K-RAS4B wild-type (Homo sapiens, UniProt P01116); test: Nucleotide exchange assay (SOS1-mediated GDP/GTP exchange, GDP-Glo), K-RAS4B wild-type; assay type: biochemical; conditions: K-RAS4B GDP/GTP exchange; eight data points, at least three determinations; (*) single determination
[5] = target: (GTP)K-RAS4B^wt:SOS1 complex (Homo sapiens, UniProt P01116+Q07889); test: HTRF K-RAS^wt:SOS protein-protein interaction assay
Description: The interaction of (GTP)K-RAS4B^wt and SOS was measured with a HTRF assay using an SOS-specific antibody labeled with terbium cryptate as HTRF (homogeneous time-resolved fluorescence) donor and a K-RAS4B^wt specific antibody labeled with an HTRF acceptor (XL665).[52]
To test the compounds effect on the interaction of K-RAS and SOS1 proteins a commercial assay from Revvity (product code 64[sequence]) was used. The K-RAS WT/SOS1 PPI assay includes tagged human recombinant partners (K-RAS WT and SOS1) and labelled anti-tag reagents for HTRF detection. Without an inhibitor, K-RAS WT loaded with GTP binds to SOS1, and the binding of each detection reagent to its tagged target generates an HTRF signal. In the presence of K-RAS WT/SOS1 inhibitors or GTP competitors, the HTRF signal decreases.
After an incubation step for 10 min at room temperature 3 μL Tag1-KRAS protein was added followed by 7.5 μL detection mix containing anti-Tag2 antibody labeled with Terbium cryptate and anti-Tag1 antibody labeled with XL665. […] IC50 values were determined from the sigmoidal dose response curves with the Scigilian Analyze software (Scigilian, Monteral, Canada).

[6] = target: T1, K-RAS4B^G12D; test: cell-based; design: a fusion protein of LgBiT and full-length RAS; a fusion protein of SmBiT(q) and full-length RAS in cells; expressed in transfected cells; host or cells: HEK239T (so in the source); conditions: live cells; displacement of BI2852 from the K-Ras4B SI/II binding-site; read-out: K-RAS4B^G12D NanoBRET TE KD
Description: To obtain further information on the mode of action, selected GDP/GTP exchange inhibitors were studied in additional assays (Table 3). A target engagement assay, which is based on bioluminescence resonance energy transfer (BRET), was used to measure target engagement at protein complexes in live cells (Fig. 5a). The BRET effect results from an energy transfer between the target luciferase fusion protein and a cell-permeable fluorescent tracer in intact cells.
Fig. 5 Schematic illustrations of the RAS cellular target engagement and RAS:SOS protein–protein interaction assay. (a) NanoBRET target engagement (TE) assay: when the fusion proteins LgBiT-RAS and SmBiT(q)-RAS interact in live-cells, they form an active luciferase as a BRET donor. The BRET receptor is a fluorescent NanoBRET® tracer that binds specifically to K-RAS. K-RAS binders displace the tracer and reduce the BRET signal in a dose-dependent manner.
The NanoBRET® TE Intracellular RAS Assay uses NanoBiT® Technology, a structural complementation system comprised of a large luciferase subunit (LgBiT) and a small complementary peptide (SmBiT(q)). Specifically, a fusion protein of LgBiT and full-length RAS is co-expressed with a fusion protein of SmBiT(q) and full-length RAS in cells. When the RAS proteins interact and form multimers, the LgBiT and SmBiT(q) subunits come together to form an active luciferase enzyme that serves as the BRET donor. The energy acceptor is a cell-permeable fluorescent NanoBRET® tracer that binds specifically to RAS. […] After mixing the plate for 1 min and incubation at room temperature for 15 min 1 μL of NanoBRET TE RAS Tracer 01 (final concentration 1 μM) was added followed by another mixing step. After 2 h incubation (37 °C, 5% CO2) and 15 min at room temperature 5 μL of NanoBRET™ Nano-Glo® substrate was added followed by a mixing step.

[7] = K-RAS4B form mostly not given, inactive = IC50 > 100 μM (Fig. 3 legend)

Row | IC50 [1] [µM] | IC50 [2] [µM] | solubility [3] [µM] | IC50 [4] [µM] | SMILES | inhibition of GDP/GTP exchange (in words) [1, 7] | further results
1 | > 300 |  |  |  | C=C(C)[C@@H]1CC[C@]2(C(=O)O)CC[C@]3(C)[C@H](CC[C@@H]4[C@@]5(C)CC[C@H](O)C(C)(C)[C@@H]5CC[C@]43C)[C@@H]12 [Compound 2, betulinic acid] |  | 
2 | > 300 |  |  |  | C[C@H]1[C@H](C)CC[C@]2(C(=O)O)CC[C@]3(C)C(=CC[C@@H]4[C@@]5(C)CC[C@H](O)C(C)(C)[C@@H]5CC[C@]43C)[C@H]12 [Compound 4, Ursolic acid] |  | 
3 |  |  |  |  | C=C(C)[C@@H]1CC[C@]2(C(=O)O)CC[C@]3(C)[C@H](CC[C@@H]4[C@@]5(C)CC[C@H](OC(C)=O)C(C)(C)[C@@H]5CC[C@]43C)[C@@H]12 [Compound 8] | inactive | 
4 |  |  |  |  | C=C(C)[C@@H]1CC[C@]2(C(=O)O)CC[C@]3(C)[C@H](CC[C@@H]4[C@@]5(C)CC[C@H](OC(=O)c6ccccc6)C(C)(C)[C@@H]5CC[C@]43C)[C@@H]12 [Compound 9] | inactive | 
5 |  |  |  |  | C=C(C)[C@@H]1CC[C@]2(C(=O)OC)CC[C@]3(C)[C@H](CC[C@@H]4[C@@]5(C)CC[C@H](O)C(C)(C)[C@@H]5CC[C@]43C)[C@@H]12 [Compound 10] | inactive | 
6 |  |  |  |  | C=C(C)[C@@H]1CC[C@]2(C(=O)NCC(=O)O)CC[C@]3(C)[C@H](CC[C@@H]4[C@@]5(C)CC[C@H](O)C(C)(C)[C@@H]5CC[C@]43C)[C@@H]12 [Compound 12] | inactive | 
7 |  |  |  |  | C=C(C)[C@@H]1CC[C@]2(C(=O)On3nnc4cccnc43)CC[C@]3(C)[C@H](CC[C@@H]4[C@@]5(C)CC[C@H](O)C(C)(C)[C@@H]5CC[C@]43C)[C@@H]12 [Compound 13] | inactive | 
8 |  |  |  |  | C=C(C)[C@@H]1CC[C@]2(C(=O)NCCN)CC[C@]3(C)[C@H](CC[C@@H]4[C@@]5(C)CC[C@H](O)C(C)(C)[C@@H]5CC[C@]43C)[C@@H]12 [Compound 17] | inactive | 
9 |  |  |  |  | C=C(C)[C@@H]1CC[C@]2(C(=O)O)CC[C@]3(C)[C@H](CC[C@@H]4[C@@]5(C)CCC(=O)C(C)(C)[C@@H]5CC[C@]43C)[C@@H]12 [Compound 20, betulonic acid] | inactive | 
10 |  |  |  |  | C=C(C)[C@@H]1CC[C@]2(C(=O)NCC(=O)OCC)CC[C@]3(C)[C@H](CC[C@@H]4[C@@]5(C)CC[C@H](O)C(C)(C)[C@@H]5CC[C@]43C)[C@@H]12 [Compound 21] |  | inhibition of GDP/GTP exchange (in words) [1]: inactive
11 |  |  |  |  | C=C(C)[C@@H]1CC[C@]2(C(=O)O)CC[C@]3(C)[C@H](CC[C@@H]4[C@@]5(C)CC[C@H](OC(=O)c6cc7ccccc7cc6C(=O)O)C(C)(C)[C@@H]5CC[C@]43C)[C@@H]12 [Compound 22] |  | inhibition of GDP/GTP exchange (in words) [1]: loss of GDP/GTP exchange inhibition
12 | 13.8 ± 4.2 |  |  |  | COC(=O)[C@]12CC[C@@H](C(C)C(=O)O)[C@@H]1[C@H]1CC[C@@H]3[C@@]4(C)CC[C@H](OC(C)=O)C(C)(C)[C@@H]4CC[C@@]3(C)[C@]1(C)CC2 (some centres unmarked) [Compound 27] |  | 
13 | 10.4 ± 0.8 | 12.7 ± 5.5 |  | 25.6 ± 4.3 | C=C(C)[C@@H]1CC[C@]2(COC(=O)CCC(=O)O)CC[C@]3(C)[C@H](CC[C@@H]4[C@@]5(C)CC[C@H](O)C(C)(C)[C@@H]5CC[C@]43C)[C@@H]12 [Compound 31] |  | 
14 |  |  |  |  | C=C(C)[C@@H]1CC[C@]2(CN)CC[C@]3(C)[C@H](CC[C@@H]4[C@@]5(C)CC[C@H](O)C(C)(C)[C@@H]5CC[C@]43C)[C@@H]12 [Compound 35] |  | inhibition of GDP/GTP exchange (in words) [1]: inactive
15 | 55.6 ± 6.5 |  | 383 (≈ 255 µg/mL) | 53.6 ± 7.3 | COc1cc(C(=O)O)c(C(=O)O[C@H]2CC[C@]3(C)[C@H]4CC=C5[C@@H]6[C@@H](C)[C@H](C)CC[C@]6(C(=O)O)CC[C@@]5(C)[C@]4(C)CC[C@H]3C2(C)C)cc1OC [Compound 38] |  | 
16 | 27.8 ± 2.6 | 9.18 ± 0.99 |  | 12.8 ± 2.9 | CC1(C)CC[C@]2(C(=O)Nc3nnn[nH]3)CC[C@]3(C)C(=CC[C@@H]4[C@@]5(C)CC[C@H](O)C(C)(C)[C@@H]5CC[C@]43C)[C@@H]2C1 [Compound 39] |  | 
17 |  |  |  |  | CC1(C)CC[C@]2(C(=O)NCCN)CC[C@]3(C)C(=CC[C@@H]4[C@@]5(C)CC[C@H](O)C(C)(C)[C@@H]5CC[C@]43C)[C@@H]2C1 [Compound 40] | inactive | 
18 | 7.61 ± 0.7 | 5.47 |  | 4.68 | CC1(C)CC[C@]2(C(=O)NO)CC[C@]3(C)C(=CC[C@@H]4[C@@]5(C)CC[C@H](OC(=O)c6cc(F)c(F)cc6C(=O)O)C(C)(C)[C@@H]5CC[C@]43C)[C@@H]2C1 [Compound 41] |  | 
19 |  |  |  |  | CC1(C)CC[C@]2(C(=O)O)CC[C@]3(C)C(=CC[C@@H]4[C@@]5(C)CC[C@H](OC(=O)c6cc(F)c(F)cc6C(=O)NO)C(C)(C)[C@@H]5CC[C@]43C)[C@@H]2C1 [Compound 42, oleanoyl 4,5-difluoro-2-(hydroxycarbamoyl)benzo-ate] | completely inactive | 
20 | 2.22 ± 0.29 | 2.71 ± 0.39 | 394 (≈ 252 µg/mL) | 1.5 ± 0.08 | CC1(C)CC[C@]2(C(=O)O)CC[C@]3(C)C(=CC[C@@H]4[C@@]5(C)CC[C@H](OC(=O)c6cc(F)c(F)cc6C(=O)O)C(C)(C)[C@@H]5CC[C@]43C)[C@@H]2C1 [Compound 43] |  | 
21 | 2.88 ± 0.89 | 2.51 ± 0.24 | 424 (≈ 272 µg/mL) | 1.33 ± 0.24 | CC1(C)CC[C@]2(C(=O)O)CC[C@]3(C)C(=CC[C@@H]4[C@@]5(C)CC[C@H](OC(=O)c6c(F)ccc(F)c6C(=O)O)C(C)(C)[C@@H]5CC[C@]43C)[C@@H]2C1 [Compound 44] |  | 
22 | 3.06 ± 0.79 | 5.62 ± 0.93 | 390 (≈ 238 µg/mL) | 1.52 ± 0.5 | CC1(C)CC[C@]2(C(=O)O)CC[C@]3(C)C(=CC[C@@H]4[C@@]5(C)CC[C@H](OC(=O)c6sccc6C(=O)O)C(C)(C)[C@@H]5CC[C@]43C)[C@@H]2C1 [Compound 45] |  | 
23 | 3.67 ± 0.35 | 8.12 ± 1.24 | 421 (≈ 257 µg/mL) | 4.15 ± 1.32 | CC1(C)CC[C@]2(C(=O)O)CC[C@]3(C)C(=CC[C@@H]4[C@@]5(C)CC[C@H](OC(=O)c6ccsc6C(=O)O)C(C)(C)[C@@H]5CC[C@]43C)[C@@H]2C1 [Compound 46] |  | 
24 |  |  |  |  | COC(=O)c1ccccc1C(=O)O[C@H]1CC[C@]2(C)[C@H]3CC=C4[C@@H]5CC(C)(C)CC[C@]5(C(=O)O)CC[C@@]4(C)[C@]3(C)CC[C@H]2C1(C)C [Compound 48] | completely inactive | 
25 | 26.5 ± 5.9 | 8.57 ± 1.09 | 99 (≈ 65 µg/mL) | 7.18 ± 0.68 | CC1(C)CCC23CCC4(C)C5(C)CCC6C(C)(C)C(OC(=O)c7cc(F)c(F)cc7C(=O)O)CCC6(C)C5CC(O)C4(OC2=O)C3C1 (centres unmarked) [Compound 51] |  | 
26 | 27.1 ± 4.2 | 8.7 ± 0.59 | 320 (≈ 210 µg/mL) | 10.6 ± 2.9 | CC1(C)CCC23CCC4(C)C5(C)CCC6C(C)(C)C(OC(=O)c7c(F)ccc(F)c7C(=O)O)CCC6(C)C5CC(O)C4(OC2=O)C3C1 (centres unmarked) [Compound 52] |  | 
27 |  |  | 322 (≈ 193 µg/mL) |  | C#Cc1c(F)ccc2cc(O)cc(-c3ncc4c(N5CC6CCC(C5)N6)nc(OC[C@@]56CCCN5C[C@H](F)C6)nc4c3F)c12 [Compound 53, MRTX1133, reference compound] |  | 
28 | 13.7 ± 5.1 | 10.9 ± 0.6 | 114 (≈ 58.9 µg/mL) | 13.4 ± 2.1 | Cn1cnc(Cn2ccc3ccc(CNCc4[nH]c5ccccc5c4C4NC(=O)c5ccc(O)cc54)cc32)c1 (centres unmarked) [Compound 54, BI2852, reference compound] |  | 

Row | SMILES | IC50 [1] [µM] | IC50 [2] [µM] | solubility [3] [µM] | IC50 [4] [µM] | inhibition of GDP/GTP exchange (in words) [1, 7] | further results
29 | CC(C=O)[C@@H]1CC[C@]2(C(=O)O)CC[C@]3(C)[C@H](CC[C@@H]4[C@@]5(C)CC[C@H](OC(=O)c6ccccc6C(=O)O)C(C)(C)[C@@H]5CC[C@]43C)[C@@H]12 (some centres unmarked) [Compound 14] | 48.5 ± 12.7 | 51.1 ± 6.2 | 447 (≈ 278 µg/mL) | 37.3 ± 19.1 |  | solubility (in words) [3]: well soluble
30 | C=C(C)[C@@H]1CC[C@]2(COC(=O)CCC(=O)O)CC[C@]3(C)[C@H](CC[C@@H]4[C@@]5(C)CC[C@H](OC(=O)c6c(F)ccc(F)c6C(=O)O)C(C)(C)[C@@H]5CC[C@]43C)[C@@H]12 [Compound 33] | 1.45 ± 0.93 | 2.13 ± 0.87 | 416 (≈ 302 µg/mL) | 2.09 ± 0.59 |  | Kd [5]: 37.4 µM; Kd [6]: 26.4 µM
